Results from PubChem BioAssay (NCI).
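Five concentrations, 48 hours, 96-well plates. GI50 is the concentration that inhibits growth by half. TGI denotes the concentration required for complete inhibition of growth.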

Assays:
Test in all cases: NCI-60 cell line screen, 48 h
UACC-62 melanoma = tested on: UACC-62 melanoma
DMS 114 small cell lung = tested on: DMS 114 small cell lung
UACC-257 melanoma = tested on: UACC-257 melanoma
HCT-116 colon = tested on: HCT-116 colon
SF-295 CNS = tested on: SF-295 CNS
SF-539 CNS = tested on: SF-539 CNS
KM20L2 colon = tested on: KM20L2 colon
KM12 colon = tested on: KM12 colon
HL-60(TB) leukemia = tested on: HL-60(TB) leukemia
A498 renal = tested on: A498 renal

SMILES	TGI (UACC-62 melanoma) [µM]	TGI (DMS 114 small cell lung) [µM]	TGI (UACC-257 melanoma) [µM]	TGI (HCT-116 colon) [µM]	TGI (SF-295 CNS) [µM]	TGI (SF-539 CNS) [µM]	TGI (KM20L2 colon) [µM]	TGI (KM12 colon) [µM]	TGI (HL-60(TB) leukemia) [µM]	TGI (A498 renal) [µM]	GI50 (UACC-62 melanoma) [µM]	GI50 (UACC-257 melanoma) [µM]	GI50 (HCT-116 colon) [µM]	GI50 (SF-295 CNS) [µM]	GI50 (SF-539 CNS) [µM]	GI50 (KM12 colon) [µM]	GI50 (HL-60(TB) leukemia) [µM]	GI50 (A498 renal) [µM]	GI50 (DMS 114 small cell lung) [µM]
CC(=O)NNc1nc(C)c(C(=O)NNC(=O)C(=O)Nc2ccccc2C#N)s1	> 100	> 100	> 100	> 100	> 100	> 100	> 100	> 100	> 100	> 100	–	–	–	–	–	–	–	–	–
COc1cc2c(cc1OC)C(N(C)C)C(c1ccccc1)=C2Cl (stereo unspecified)	–	–	40.5	–	49.7	37.7	58.6	57.9	65.8	59.7	–	–	–	–	–	–	–	–	–
COc1cccc(NC(=O)CC(=O)N2N=C(N(CCC#N)c3ccc(Cl)cc3)CC2c2ccccc2)c1 (stereo unspecified)	> 100	> 100	> 100	> 100	> 100	> 100	> 100	> 100	> 100	> 100	–	–	–	–	–	–	–	–	–
O=C(CC(=O)CC(O)(C(F)(F)F)C(F)(F)F)CC(O)(C(F)(F)F)C(F)(F)F	> 10	–	> 10	> 10	> 10	> 10	–	> 10	> 10	> 10	–	–	–	–	–	–	–	–	–
N#Cc1cnc2cc(OC[C@H](O)CO)c(NC(=O)CC3CSSC3)cc2c1Nc1ccc(OCc2cccc(F)c2)c(Cl)c1	1.68	–	1.96	0.208	1.6	1.55	–	0.45	1.93	2.45	0.807	1.01	0.0977	0.83	0.791	0.155	0.806	1.03	–
C[C@H](Nc1ncnc2nc[nH]c12)c1cc2cccc(Cl)c2c(=O)n1-c1ccccc1	> 100	–	> 100	> 100	> 100	> 96	–	> 100	99.5	0.446	2.6	8.57	18.4	1.54	12.5	27.1	3.37	0.0491	–
O=C([O-])c1ccccc1Nc1ccccn1.O=C([O-])c1ccccc1Nc1ccccn1.[Ni+2]	> 100	> 100	> 100	> 100	> 100	> 100	–	> 100	–	> 100	> 100	> 100	> 100	> 100	72.4	> 100	–	> 100	> 100
CNC(=O)c1cncc(/C=C/c2ccccc2C)c1	> 25	–	> 25	> 25	> 25	> 25	–	> 25	> 25	> 25	> 25	> 25	> 25	> 25	> 25	> 25	> 25	17.4	–
COc1ccc(N2C(C)=C(C#N)C34C(=O)N(c5ccccc5)C(=O)C3=C(O)C=CC24O)cc1 (stereo unspecified)	18.7	–	> 100	25.5	15.1	25.3	–	26.6	65.9	48.2	5.06	30.1	9.73	3.49	6.82	10	15.5	18.6	–
C[C@@H](C(=O)Nc1ccc(Cl)cc1)C1CCC(c2ccnc3ccc(F)cc23)CC1 (stereo partly specified)	47.2	–	53.7	21.6	> 100	47.7	–	34.9	24.7	56.8	10.3	13.3	3.13	8.12	11.8	6.01	5.22	6.27	–
COc1cccc(/C=C/C(=O)c2cccc(Nc3nc(Nc4ccccc4)nc(Nc4ccccc4)n3)c2)c1	> 100	–	> 100	2.93	–	34.4	–	18.3	43.6	17.7	> 100	> 56	1.42	1.96	15.6	3.88	10.5	6.04	–
CN(C)S(=O)(=O)c1ccc(NC(=O)COC(=O)c2ccc(S(=O)(=O)N3CCCCC3)cc2)cc1	> 100	–	> 100	> 100	> 100	> 100	–	> 100	> 100	> 100	> 100	> 100	> 100	> 100	> 100	> 100	> 100	> 100	–
COc1c(CCC[P+](c2ccccc2)(c2ccccc2)c2ccccc2)cc2c(c1OC)OCO2	5.53	–	4.38	> 100	8.38	13.7	–	7.48	1.48	3.3	0.569	0.312	1.2	2.62	2.1	0.643	0.339	0.0261	–
COc1ccccc1NC(=O)C1=C(C)NC(C)=C(C(=O)Nc2ccccc2OC)C1c1ccccc1F	> 100	> 100	> 100	> 100	> 100	> 100	> 100	> 100	> 100	> 100	–	–	–	–	–	–	–	–	–
COC(=O)CCC1CCc2c(OC)ccc(O)c2C1=O (stereo unspecified)	> 100	–	> 100	> 100	> 100	> 100	–	> 100	> 100	> 100	–	–	–	–	–	–	–	–	–
C[N+](C)(C)CC(=O)N/N=C(/Cc1nc2c3c(ccc2[nH]c1=O)C(=O)c1ccccc1C3=O)C(=O)Nc1ccc(Cl)c(Cl)c1	> 100	> 100	> 100	> 100	> 100	> 100	> 100	> 100	> 100	> 100	–	–	–	–	–	–	–	–	–
CC/C=C\C=C/C(=O)N/C=C/CC1Cc2cccc(O)c2C(=O)O1 (stereo unspecified)	> 100	–	> 100	42.2	> 100	37.1	–	72.1	> 100	59.9	22.6	25.2	19.1	33.1	13.9	19.2	23.8	20.6	–
Cc1ccc(C(=O)O/N=C2/CCC/C2=C\c2ccccc2)cc1	> 100	> 100	> 100	> 100	> 100	> 100	> 100	> 100	> 100	> 100	–	–	–	–	–	–	–	–	–
CCN(CC)S(=O)(=O)c1ccc(OC)c(Nc2ncc(-c3ccccc3)o2)c1	> 25	–	> 25	> 25	> 25	> 25	–	> 25	> 25	> 15.5	> 18.3	> 25	> 17.9	> 16.5	> 17.3	0.845	> 15	1.24	–
CCN1C(=O)N(CC)C2C1NN=c1s/c(=C\c3cccnc3)c(=O)n12 (stereo unspecified)	> 100	–	> 100	> 100	> 100	2.51	–	> 100	–	1.01	0.417	> 100	0.478	0.353	0.319	0.464	0.395	0.224	–
COc1ccc2nc3cc([N+](=O)[O-])ccc3c(NCCCCCN(C)C)c2c1	0.74	–	2.66	1.18	2.52	1.66	–	0.618	2.52	2.98	0.231	1.03	0.0453	0.353	0.319	0.207	0.14	1.07	–
Cc1occc1C(=S)Nc1ccc(Cl)c(COC(C)(C)C)c1	28.6	–	31.3	32.1	27.9	31.1	–	31.7	45	32.3	–	–	–	–	–	–	–	–	–
O=Cc1cn(C(=O)c2ccccc2)c2ccccc12	> 100	> 100	> 100	> 100	> 100	> 100	> 100	> 100	92.6	> 100	–	–	–	–	–	–	–	–	–
Cc1ccc(S(=O)(=O)N2CCSCCSCCSCCSCC2)cc1	38.1	–	> 100	> 100	39.3	43.7	–	> 100	> 100	> 74.2	–	–	–	–	–	–	–	–	–
COC1(C(=O)N[C@@H](C)c2ccc(-n3cc(F)cn3)nc2)CCC(c2nc(C)cc(Nc3cc(C)[nH]n3)n2)CC1 (stereo partly specified)	17.4	–	26.5	14	3.95	1.56	–	18.2	41.8	0.7	4.14	10.9	2.61	1.17	0.314	0.0676	19.5	0.147	–
